According to the supplement of paper PMC10290057:
Where a name gives a salt, the structure may show the parent alone.

How the values were obtained:
[1] = system: HCT116; experiment: AC50 cell viability (CellTiter-Glo); higher = less potent; conditions: 48 h
[2] = system: HCT116; experiment: efficacy (fitted maximal change in viability relative to DMSO control); higher = less cytotoxic (negative = loss of viability); conditions: 48 h
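Wherever AC50 cell viability (CellTiter-Glo) is given: HCT116 colorectal carcinoma cells screened at five concentrations per compound, luminescent viability scaled between DMSO wells and empty wells on each plate, curves fitted per compound.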
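Wherever efficacy (fitted maximal change in viability relative to DMSO control) is given: Luminescence-based viability readout, five doses per compound, normalized against on-plate DMSO and empty-well controls, followed by dose-response curve fitting for every drug.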

SMILES: CNCCn1c(=O)c2cc(OC)c(OC)cc2c2cnc3cc4c(cc3c21)OCO4
- AC50 cell viability [1]: 0.0303 µM
- efficacy [2]: -80.9%

SMILES: c1cc(OCCN2CCCCC2)cc(-c2n[nH]c3ccc(-c4nc[nH]n4)cc23)c1 [CC-401]
- AC50 cell viability [1]: 14.8 µM
- efficacy [2]: -70.1%

SMILES: CN1CCC(CC1)=C2C3=C(C=CC=C3)\C=C/C4=C2C=CC=C4 [Cyproheptadine hydrochloride]
- AC50 cell viability [1]: 23.5 µM
- efficacy [2]: -81.9%

SMILES: O=C(NCCCNc1nc(Nc2ccc(N3CCOCC3)cc2)ncc1C1CC1)C1CCC1
- AC50 cell viability [1]: 5.9 µM
- efficacy [2]: -84.5%

SMILES: Nc1ccccc1NC(=O)c1ccc(CNc2nccc(-c3cccnc3)n2)cc1 [Mocetinostat]
- AC50 cell viability [1]: 0.934 µM
- efficacy [2]: -73.2%

SMILES: COc1cc(C)c(Sc2cnc(NC(=O)c3ccc(CNC(C)C(C)(C)C)cc3)s2)cc1C(=O)N1CCN(C(C)=O)CC1 (stereo unspecified)
- AC50 cell viability [1]: 11.8 µM
- efficacy [2]: -110%

SMILES: CC(/C=C/C(=O)NO)=C\[C@@H](C)C(=O)c1ccc(N(C)C)cc1 [Trichostatin A]
- AC50 cell viability [1]: 0.332 µM
- efficacy [2]: -82.3%

SMILES: O=C(NOCC(O)CO)c1cc(Br)c(F)c(F)c1Nc1ccc(I)cc1F (stereo unspecified)
- AC50 cell viability [1]: 0.934 µM
- efficacy [2]: -69.5%

SMILES: CN(C)[S+](=O)([O-])c1ccc2c(c1)C(=Cc1cc3c([nH]1)CCCC3)C(=O)N2 [SU-6656]
- AC50 cell viability [1]: 0.118 µM
- efficacy [2]: -34.2%

SMILES: CC[S+](=O)([O-])c1cccc(-c2cc(C(=O)NC3CCN(C)CC3)c(C)c3[nH]c4ncc(C)cc4c23)c1 [TAK-901]
- AC50 cell viability [1]: 0.417 µM
- efficacy [2]: -76.3%

SMILES: c1nc2c(NC3CCCCC3)nc(Nc3ccc(N4CCOCC4)cc3)nc2[nH]1 [Reversine]
- AC50 cell viability [1]: 6.61 µM
- efficacy [2]: -114%

SMILES: CCc1cc(/C(C)=N/OCc2ccc(C3CCCCC3)c(C(F)(F)F)c2)ccc1CN1CC(C(=O)O)C1 [BAF-312]
- AC50 cell viability [1]: 20.9 µM
- efficacy [2]: -66.2%

SMILES: O=C(NC1CC1)c1cccc(-c2ccc3c(NC(=O)C4CC4)n[nH]c3c2)c1
- AC50 cell viability [1]: 9.34 µM
- efficacy [2]: -52.3%

SMILES: COc1cc(C)c(Sc2cnc(NC(=O)c3ccc(CNC(C)C(C)C)cc3)s2)cc1C(=O)N1CCN(C(C)=O)CC1 (stereo unspecified) [ITK Inhibitor]
- AC50 cell viability [1]: 14.8 µM
- efficacy [2]: -132%

SMILES: CCCCC(C)(C)[C@H](O)/C=C/[C@H]1[C@H](O)CC(=O)[C@@H]1C/C=C\CCCC(=O)O [16,16-dimethyl PGE2]
- AC50 cell viability [1]: 20.9 µM
- efficacy [2]: -64.7%

SMILES: CC1=C(/C=C/C(C)=C/C=C/C(C)=C/C(=O)Nc2ccc(O)cc2)C(C)(C)CCC1 [Fenretinide]
- AC50 cell viability [1]: 23.5 µM
- efficacy [2]: -84.3%

SMILES: N=C(N)c1ccc(OCCCCCOc2ccc(C(=N)N)cc2)cc1 [Pentamidine isethionate]
- AC50 cell viability [1]: 20.9 µM
- efficacy [2]: -54.5%

SMILES: C[C@]12CC[C@H]3[C@@H](CC[C@@]45O[C@@H]4\C(=C(/C[C@]35C)C#N)O)[C@@H]1CC[C@@H]2O [Trilostane]
- AC50 cell viability [1]: 13.2 µM
- efficacy [2]: -31.9%

SMILES: CCc1cnn2c(NCc3ccc[n+]([O-])c3)cc(N3CCCC[C@H]3CCO)nc12
- AC50 cell viability [1]: 0.0148 µM
- efficacy [2]: -67.1%

SMILES: Cc1cc(Nc2ncc3c(n2)N(C)C(=O)N(c2cc(NC(=O)c4cccc(C(F)(F)F)c4)ccc2C)C3)n(C)n1 [Pluripotin]
- AC50 cell viability [1]: 0.235 µM
- efficacy [2]: -74%

SMILES: CCOc1cc(N2CCC(O)CC2)ccc1Nc1ncc2c(n1)N(C)c1ccccc1C(=O)N2C [XMD8-92]
- AC50 cell viability [1]: 8.33 µM
- efficacy [2]: -80.7%

SMILES: N[S+](=O)([O-])c1ccc(NC(=S)N2CCN(C/C=C/c3ccccc3)CC2)cc1 [LF3]
- AC50 cell viability [1]: 2.95 µM
- efficacy [2]: -42.2%

SMILES: C[C@H]1C[C@@H](n2c(Nc3ccc(OC(F)(F)F)cc3)nc3cc(CCC(=O)O)ccc32)CC(C)(C)C1
- AC50 cell viability [1]: 20.9 µM
- efficacy [2]: -65%

SMILES: CNC(=O)Cn1cc(-c2ccc3c(c2)C(F)CC32NC(=O)N(CC(=O)N(Cc3ccc(F)cc3)C(C)C(F)(F)F)C2=O)cn1 (stereo unspecified)
- AC50 cell viability [1]: 0.934 µM
- efficacy [2]: -51.2%

SMILES: Cc1cn(-c2cc(NC(=O)c3ccc(C)c(Nc4nccc(-c5cccnc5)n4)c3)cc(C(F)(F)F)c2)cn1 [Nilotinib]
- AC50 cell viability [1]: 1.66 µM
- efficacy [2]: -46.8%

SMILES: CC(=O)NC(C)c1ccc(Oc2ccc(OC(C)C)cc2)cc1 (stereo unspecified) [ACC1 BMS]
- AC50 cell viability [1]: 17.1 µM
- efficacy [2]: -47.8%

SMILES: COc1cc(N2CCC(N3CCN(C)CC3)CC2)ccc1Nc1ncc(Cl)c(Nc2ccccc2[S+](=O)([O-])C(C)C)n1 [TAE-684]
- AC50 cell viability [1]: 1.18 µM
- efficacy [2]: -110%

SMILES: O=C(/C=C/c1ccc2ccc(C(F)(F)F)cc2n1)c1ccncc1 [PFK-158]
- AC50 cell viability [1]: 3.72 µM
- efficacy [2]: -89%
